Literature values, collected in patent publication EP0882446A1, “Antimicrobial skin cleansing compositions” (GOJO INDUSTRIES,INC., priority 1997, dated 1998).

How the values were obtained:
[1] = at levels below about 3 percent by weight
[2] = test system: wide spectrum of bacteria; details: against a wide spectrum of bacteria; reported

SMILES: Cc1cc(O)cc(C)c1Cl [PCMX, 4-chloro-3,5-dimethyl phenol]
- toxicity and irritation to human skin [1]: non-toxic and non-irritating
- antimicrobial activity relative to phenol [2]: 60 times
